The values below come from patent US20250221966A1, “RXFP1 AGONISTS” (BRISTOL-MYERS SQUIBB COMPANY, priority 2021, published 2025).

Molecules are shown by their SMILES.

The target in the experiment is T1, human RXFP1 (Homo sapiens, UniProt Q9HBX9).
T1 construct: expressed in transfected cells
T1 sequence (Q9HBX9 1-757): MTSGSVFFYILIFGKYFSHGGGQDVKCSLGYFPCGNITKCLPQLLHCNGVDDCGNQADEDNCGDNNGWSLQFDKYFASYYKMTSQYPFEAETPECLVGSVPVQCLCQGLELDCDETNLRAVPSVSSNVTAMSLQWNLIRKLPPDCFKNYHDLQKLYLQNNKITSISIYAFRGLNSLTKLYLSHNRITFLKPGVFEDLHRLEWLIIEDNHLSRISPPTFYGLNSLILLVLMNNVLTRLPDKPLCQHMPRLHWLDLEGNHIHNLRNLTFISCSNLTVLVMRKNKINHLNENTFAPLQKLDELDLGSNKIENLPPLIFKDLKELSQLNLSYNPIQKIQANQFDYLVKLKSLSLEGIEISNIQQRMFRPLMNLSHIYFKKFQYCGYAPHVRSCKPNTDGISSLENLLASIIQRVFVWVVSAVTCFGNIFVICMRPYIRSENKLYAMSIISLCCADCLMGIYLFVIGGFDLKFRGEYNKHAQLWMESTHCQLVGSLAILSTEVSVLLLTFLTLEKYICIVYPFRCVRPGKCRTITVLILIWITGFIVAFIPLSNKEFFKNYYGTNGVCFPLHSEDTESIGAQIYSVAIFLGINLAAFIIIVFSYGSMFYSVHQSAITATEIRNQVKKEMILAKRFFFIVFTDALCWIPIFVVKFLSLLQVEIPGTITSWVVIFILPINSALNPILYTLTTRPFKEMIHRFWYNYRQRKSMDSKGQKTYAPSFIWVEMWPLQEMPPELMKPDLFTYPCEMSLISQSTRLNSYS
Nature of the experiment: RXFP1 cAMP assay (hRXFP1 HEK293 cAMP assay, HTRF). The following applies: HEK293 cells stably expressing human RXFP1, 30 min at room temperature, read-out: cAMP hRXFP1 HEK293 Assay EC50. The format is cell-based. An outline of the steps: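 In a stable human RXFP1 HEK293 line, compounds acted for 30 min at RT in buffer with 0.5 mM IBMX. HTRF then quantified cellular cAMP.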
As to `COc1ccc(-c2cc(C(=O)N3CCC(O)CC3)on2)cc1C(=O)N[C@H]1[C@@H](C(=O)Nc2ccc(F)c(C(F)(F)F)c2)[C@H]2CC[C@@H]1/C2=C\C1CC1` [Example 594], the EC50 was found to be 91.4 nM. Take `COc1ccc(C2=NOC3COCC23)cc1C(=O)N[C@H]1[C@@H](C(=O)NC2CCC(C#N)C2)[C@H]2CC[C@@H]1/C2=C\C1CC1` (stereo partly drawn) [Example 664]: the EC50 amounted to 367 nM. Take `COc1ccc(C2=NC[C@H]3CCCN23)cc1C(=O)N[C@H]1[C@@H](C(=O)Nc2ccc(F)c(C(F)(F)F)c2)[C@H]2CC[C@@H]1/C2=C\C1CC1` [Example 699]: the EC50 is 1030 nM. Consider `COc1ccc(C23COC(C(=O)O)(C2)C3)cc1C(=O)N[C@H]1[C@@H](C(=O)Nc2ccc(F)c(C(F)(F)F)c2)[C@H]2CC[C@@H]1/C2=C\C(F)(F)F` [Example 724, 4-(3-(((1R,2R,3S,4R,Z)-3-((4-fluoro-3-(trifluoromethyl)phenyl)carbamoyl)-7-(2,2,2-trifluoroethylidene)bicyclo[2.2.1]heptan-2-yl)carbamoyl)-4-methoxyphenyl)-2-oxabicyclo[2.1.1]hexane-1-carboxylic acid], for which the EC50 amounted to 5000 nM. In the case of `COc1ccc(C2CC3COCC32)cc1C(=O)N[C@H]1[C@@H](C(=O)Nc2ccc(F)c(C(F)(F)F)c2)[C@H]2CC[C@@H]1/C2=C\C1CC1` (stereo partly drawn) [Example 725, (1R,2S,3R,4R,Z)-3-(5-(3-oxabicyclo[3.2.0]heptan-6-yl)-2-methoxybenzamido)-7-(cyclopropylmethylene)-N-(4-fluoro-3-(trifluoromethyl)phenyl)bicyclo[2.2.1]heptane-2-carboxamide], the EC50 turned out to be 360 nM. `CCOC(=O)/C=C1\C2CCC1[C@H](C(=O)Nc1ccc(F)c(C(F)(F)F)c1)[C@@H]2NC(=O)c1cc(F)c(F)cc1OC` (stereo partly drawn) [compound 7]: the EC50 was 270 nM. `COc1cc(F)c(F)cc1C(=O)N[C@@H]1C2CCC(/C2=C/C(=O)OC(C)(C)C)[C@@H]1C(=O)Nc1ccc(F)c(C(F)(F)F)c1` (stereo partly drawn) [compound 8]: the EC50 turned out to be 110 nM. As for `COc1cc(F)c(F)cc1C(=O)N[C@@H]1C2CCC(/C2=C/C(=O)OCc2ccccc2)[C@@H]1C(=O)Nc1ccc(F)c(C(F)(F)F)c1` (stereo partly drawn) [compound 9], the EC50 is 310 nM.

As to `COc1cc(F)c(F)cc1C(=O)N[C@@H]1C2CCC(/C2=C\Br)[C@@H]1C(=O)Nc1ccc(F)c(C(F)(F)F)c1` (stereo partly drawn) [compound 10], the EC50 stood at 1100 nM.

As to `COc1cc(F)c(F)cc1C(=O)N[C@@H]1C2CCC(/C2=C/c2ccccc2Cl)[C@@H]1C(=O)Nc1ccc(F)c(C(F)(F)F)c1` (stereo partly drawn) [compound 14], the EC50 came out at 220 nM. Turning to `COc1cc(F)c(F)cc1C(=O)N[C@@H]1C2CCC(/C2=C/c2cccc(-c3ccccc3)c2)[C@@H]1C(=O)Nc1ccc(F)c(C(F)(F)F)c1` (stereo partly drawn) [compound 15], the EC50 came to 110 nM. Take `COc1cc(F)c(F)cc1C(=O)N[C@@H]1C2CCC(/C2=C/c2ccncc2)[C@@H]1C(=O)Nc1ccc(F)c(C(F)(F)F)c1` (stereo partly drawn) [compound 16]: the EC50 turned out to be 770 nM. Turning to `COc1cc(F)c(F)cc1C(=O)N[C@@H]1C2CCC(/C2=C/c2cccc(Cl)c2)[C@@H]1C(=O)Nc1ccc(F)c(C(F)(F)F)c1` (stereo partly drawn) [compound 17], the half-maximal effective concentration (EC50) turned out to be 120 nM. Turning to `COc1cc(F)c(F)cc1C(=O)N[C@@H]1C2CCC(/C2=C/c2ccc3ccccc3c2)[C@@H]1C(=O)Nc1ccc(F)c(C(F)(F)F)c1` (stereo partly drawn) [compound 18], the EC50 worked out at 630 nM. For `COc1cccc(/C=C2\C3CCC2[C@H](C(=O)Nc2ccc(F)c(C(F)(F)F)c2)[C@@H]3NC(=O)c2cc(F)c(F)cc2OC)c1` (stereo partly drawn) [compound 19], the 50% effective concentration (EC50) came out at 720 nM.

With `COc1ccc(/C=C2\C3CCC2[C@H](C(=O)Nc2ccc(F)c(C(F)(F)F)c2)[C@@H]3NC(=O)c2cc(F)c(F)cc2OC)cc1` (stereo partly drawn) [compound 20], the EC50 was 940 nM. As for `COc1cc(F)c(F)cc1C(=O)N[C@@H]1C2CCC(/C2=C/c2ccc(Cl)cc2)[C@@H]1C(=O)Nc1ccc(F)c(C(F)(F)F)c1` (stereo partly drawn) [compound 21], the EC50 came out at 55 nM. As to `COc1cc(F)c(F)cc1C(=O)N[C@@H]1C2CCC(/C2=C/c2cccnc2)[C@@H]1C(=O)Nc1ccc(F)c(C(F)(F)F)c1` (stereo partly drawn) [compound 22], the EC50 came out at 700 nM.
